Consider 2 molecules from the NIST ThermoML archive (doi:10.1021/je060017i).

Numbers after ± are expanded uncertainties.

For this data set the following is noted: 101.33 kPa, Liquid.

For `CC1CCCO1` (stereo not drawn) [2-methyltetrahydrofuran], where the note is “283.15 K”, the mass density (as a rule, the mass of a sample divided by its volume) is 864.17 ± 0.55 kg/m3; the speed of sound (as a rule, how fast a sound wave travels through the sample) amounted to 1276.6 ± 1.6 m/s; the viscosity (usually the internal friction of a fluid under shear) was 0.5618 ± 0.015 mPa·s. For the same molecule, where the note is “298.15 K”, the mass density came to 849.04 ± 0.56 kg/m3, the speed of sound came out at 1202.2 ± 1.6 m/s and the viscosity came out at 0.4776 ± 0.014 mPa·s. For the same molecule, where the note is “313.15 K”, the mass density is 833.76 ± 0.57 kg/m3, the speed of sound came out at 1129.9 ± 1.6 m/s and the viscosity was found to be 0.4088 ± 0.012 mPa·s.
As to `CCCCO` [butan-1-ol], for the setting “283.15 K”, the mass density stood at 816.92 ± 0.59 kg/m3, the speed of sound turned out to be 1292.1 ± 1.7 m/s and the viscosity turned out to be 3.869 ± 0.087 mPa·s. In addition, where the note is “298.15 K”, the mass density came to 805.73 ± 0.6 kg/m3, the speed of sound is recorded as 1242.9 ± 1.6 m/s and the viscosity is reported as 2.561 ± 0.059 mPa·s. Moreover, for the setting “313.15 K”, the mass density is 794.38 ± 0.6 kg/m3, the speed of sound amounted to 1186.3 ± 1.6 m/s and the viscosity came to 1.757 ± 0.042 mPa·s.
